Experimental data from patent publication US20070232601A1, “Vla-4 Inhibitor” (priority 2004, published 2007).
pKi: −log10 of the molar value. Marks after values point to notes of the source that are not given here.

What was measured:
[1] = target: T1, hα4 and β1 integrins (VLA-4) (Homo sapiens, UniProt P05556+P13612); test: In vitro evaluation: inhibition of binding of CHO cells expressing hα4 and β1 integrins to Eu3+-hVCAM-1 D1D7-IgG; conditions: ligand Eu3+-hVCAM-1 D1D7-IgG 2 nM, Ki calculated from IC50
T1 construct: expressed in transfected cells; host or cells: CHO cells
T1 sequence (P13612 34-1032): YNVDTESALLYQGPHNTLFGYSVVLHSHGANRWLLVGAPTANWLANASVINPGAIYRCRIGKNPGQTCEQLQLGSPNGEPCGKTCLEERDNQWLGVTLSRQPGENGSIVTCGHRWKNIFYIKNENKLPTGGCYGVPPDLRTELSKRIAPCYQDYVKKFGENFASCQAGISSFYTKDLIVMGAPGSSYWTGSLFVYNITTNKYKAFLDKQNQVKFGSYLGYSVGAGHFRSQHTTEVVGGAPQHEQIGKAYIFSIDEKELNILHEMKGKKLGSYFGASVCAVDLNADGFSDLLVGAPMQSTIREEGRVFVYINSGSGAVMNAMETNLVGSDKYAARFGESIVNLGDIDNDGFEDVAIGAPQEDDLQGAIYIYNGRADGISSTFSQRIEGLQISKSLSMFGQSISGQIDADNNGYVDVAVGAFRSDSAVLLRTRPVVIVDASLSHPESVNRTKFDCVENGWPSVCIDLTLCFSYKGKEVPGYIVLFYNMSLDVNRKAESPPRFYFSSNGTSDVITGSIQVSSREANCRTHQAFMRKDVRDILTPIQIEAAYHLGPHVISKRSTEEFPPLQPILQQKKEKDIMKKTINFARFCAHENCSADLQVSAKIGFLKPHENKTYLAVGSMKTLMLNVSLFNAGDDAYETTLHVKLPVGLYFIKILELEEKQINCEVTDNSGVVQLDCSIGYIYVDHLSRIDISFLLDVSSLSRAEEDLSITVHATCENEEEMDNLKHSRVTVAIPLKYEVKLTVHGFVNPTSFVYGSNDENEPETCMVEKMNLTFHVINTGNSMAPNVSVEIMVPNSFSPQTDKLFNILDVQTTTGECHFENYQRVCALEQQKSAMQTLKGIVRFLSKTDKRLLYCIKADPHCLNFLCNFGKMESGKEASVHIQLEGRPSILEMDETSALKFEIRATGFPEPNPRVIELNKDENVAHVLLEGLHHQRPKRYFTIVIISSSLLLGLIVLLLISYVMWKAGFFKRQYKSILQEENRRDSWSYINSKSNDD
T1 sequence (P05556 21-798): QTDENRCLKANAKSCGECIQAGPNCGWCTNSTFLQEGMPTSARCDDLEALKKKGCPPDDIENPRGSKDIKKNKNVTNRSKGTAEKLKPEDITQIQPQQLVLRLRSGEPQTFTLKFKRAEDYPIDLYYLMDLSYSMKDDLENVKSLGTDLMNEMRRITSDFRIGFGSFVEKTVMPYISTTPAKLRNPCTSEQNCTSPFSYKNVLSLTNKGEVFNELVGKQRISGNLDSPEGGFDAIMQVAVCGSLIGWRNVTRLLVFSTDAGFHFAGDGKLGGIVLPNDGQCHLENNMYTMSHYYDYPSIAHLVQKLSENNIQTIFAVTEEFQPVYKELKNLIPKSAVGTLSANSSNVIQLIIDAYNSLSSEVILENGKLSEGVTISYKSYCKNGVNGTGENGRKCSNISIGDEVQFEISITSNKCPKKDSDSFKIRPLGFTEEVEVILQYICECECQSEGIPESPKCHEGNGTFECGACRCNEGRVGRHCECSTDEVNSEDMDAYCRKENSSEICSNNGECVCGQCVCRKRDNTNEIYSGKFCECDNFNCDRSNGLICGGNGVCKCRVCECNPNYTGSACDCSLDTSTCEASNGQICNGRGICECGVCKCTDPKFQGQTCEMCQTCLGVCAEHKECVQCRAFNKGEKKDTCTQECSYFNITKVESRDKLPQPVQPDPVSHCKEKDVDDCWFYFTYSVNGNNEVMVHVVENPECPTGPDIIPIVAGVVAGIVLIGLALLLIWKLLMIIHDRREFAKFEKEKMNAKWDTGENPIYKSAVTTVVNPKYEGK
How it was run: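 CHO cells stably expressing hα4β1 were cultured 2 days, then incubated 1 h at room temperature with Eu3+-hVCAM-1 D1D7-IgG (added as 2 nM solution) and compound in HEPES pH 7.5 with Ca2+, Mg2+ and 4 mM Mn2+, ± 6% human serum albumin. Bound europium was read by time-resolved fluorescence; IC50 was converted to Ki using Scatchard-derived Kd.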

[2] = Dispersibility test in Japanese Pharmacopoeia First and Second Solution; assay type: physicochemical; conditions: for Dispersibility in Japanese Pharmacopoeia First Solution: JP1, pH 1.2; for Dispersibility in Japanese Pharmacopoeia Second Solution: JP2, pH 6.8
Protocol: Dispersibility of a test substance in Japanese Pharmacopoeia First Solution (JP1, pH 1.2) and Japanese Pharmacopoeia Second Solution (JP2, pH 6.8) was evaluated.

[3] = Intracorporeal kinetics and oral absorbing property test (dog, oral cassette); assay type: in vivo; conditions: orally administered, 0.5 mg/kg cassette; for AUC (total area under the plasma concentration versus time curve): LC/MS/MS
Protocol: Intracorporeal Kinetics and Oral Absorbing Property Test: A pharmacokinetic parameter when a test substance was orally administered to a dog by 0.5 mg/kg cassette was as follows.

[4] = tested on: eosinophils in BALF; test: Ascaris active sensitization-induced mouse eosinophil infiltration test; assay type: in vivo; conditions: test substance orally administered two times per day, BALF 48 hours after inducement; for Inhibition rate: vs Ascaris-induced group
Protocol: Ascaris (Ascaris suum Antigen in pigs) active sensitization-induced mouse eosinophil infiltration test:
It has been reported that cell infiltration of eosinophil is induced by inducing Ascaris active sensitization {Int. Arch. Immunol., 108, 11-18, (1995)}. In this evaluation method, a test compound was evaluated. A test substance was orally administered two times per day, the total count of cells and the count of eosinophils in BALF 48 hours after inducement were calculated, and the effect was determined by comparing with a non-test substance administered group.
Results of mouse eosinophil infiltration test ^1 anti-VLA-4 antibody, two times/1 day s.c. administration; **p<0.01: vs D, cont by student's t-test

| Structure (SMILES) | pKi [1] | Dispersibility in Japanese Pharmacopoeia First Solution [2] | Dispersibility in Japanese Pharmacopoeia Second Solution [2] | Cltot (apparent plasma clearance) [3] | AUC (total area under the plasma concentration versus time curve) [3] | Average total eosinophil count [4] | Inhibition rate [4] |
| --- | --- | --- | --- | --- | --- | --- | --- |
| CO[C@H]1C[C@@H](c2ncc(CCC(=O)O)s2)N(C(=O)Cc2cc(Cl)c(NC(=O)c3cn(C)c4ccccc34)cc2Cl)C1 [Example 1, 3-[2-[1-[2,5-Dichloro-4-(1-methyl-3-indolylcarbonylamino)phenylacetyl]-(4S)-methoxy-(2S)-pyrrolidinyl]-5-thiazolyl]propionic acid] | 8.89 | 33 µg/mL | >2000 µg/mL | 1.23 mL/min/kg | 7040 ng·h/mL | 1.52 ×10^5 | 57** % |
| COC[C@@H]1CC[C@@H](c2ncc(CCC(=O)O)s2)N1C(=O)Cc1ccc2nc(Nc3cc(F)ccc3C)oc2c1 [Example 58] | 8.17 | – | – | 0.59 mL/min/kg | 14860 ng·h/mL | – | – |
| Cn1cc(C(=O)Nc2cc(Cl)c(CC(=O)N3[C@H](c4ncc(CCC(=O)O)s4)C[C@@H]4CCCC[C@@H]43)cc2Cl)c2ccccc21 [Example 60, 3-[2-[1-[2,5-Dichloro-4-(1-methyl-3-indolylcarbonyl)aminophenylacetyl]-(2S)-octahydroindolyl]-5-thiazolyl]propionic acid] | 8.07 | – | – | 0.42 mL/min/kg | 19770 ng·h/mL | – | – |
| CO[C@H]1C[C@@H](c2ncc(CCC(=O)O)s2)N(C(=O)Cc2cc(Cl)c(NC(=O)c3csc4ccccc34)cc2F)C1 [Example 4, 3-[2-[1-[4-[(3-Benzo[b]thienylcarbonyl)amino]-5-chloro-2-fluorophenylacetyl]-(4S)-methoxy-(2S)-pyrrolidinyl]-5-thiazolyl]propionic acid] | 9.14 | – | – | 0.82 mL/min/kg | 10240 ng·h/mL | – | – |
| CC(C)O[C@H]1C[C@@H](c2ncc(CCC(=O)O)s2)N(C(=O)Cc2cc(Cl)c(NC(=O)c3csc4ccccc34)cc2F)C1 [Example 36, 3-[2-[1-[4-[(3-Benzo[b]thienylycarbonyl)amino]-5-chloro-2-fluorophenylacetyl]-4S-isopropoxy-(2S)-pyrrolidinyl]-5-thiazolyl]propionic acid] | 8.77 | – | – | 0.57 mL/min/kg | 14935 ng·h/mL | – | – |
| COC[C@@H]1CC[C@@H](c2ncc(CCC(=O)O)s2)N1C(=O)Cc1ccc2nc(Nc3cc(F)ccc3C)oc2c1F [Example 57, 3-[2-[1-[7-Fluoro-2-(5-fluoro-2-methylphenyl)-amino-6-benzoxazolylacetyl]-(5S)-methoxymethyl-(2S)-pyrrolidinyl]-5-thiazolyl]propionic acid] | 8.36 | – | – | 0.31 mL/min/kg | 27620 ng·h/mL | – | – |
| CO[C@H]1C[C@@H](c2ncc(CCC(=O)O)s2)N(C(=O)Cc2cc(Cl)c(NC(=O)c3cn(C)c4ccccc34)cc2F)C1 [Example 2, 3-[2-[1-[5-Chloro-2-fluoro-4-(1-methyl-3-indolylcarbonyl)aminophenylacetyl]-(4S)-methoxy-(2S)-pyrrolidinyl]-5-thiazolyl]propionic acid] | 9.07 | 97 µg/mL | >2000 µg/mL | 0.81 mL/min/kg | 10690 ng·h/mL | – | – |
| CCOC[C@@H]1CC[C@@H](c2ncc(CCC(=O)O)s2)N1C(=O)Cc1ccc2nc(Nc3cc(F)ccc3C)oc2c1F [Example 51, 3-[2-[(5S)-ethoxymethyl-1-[7-fluoro-2-(5-fluoro-2-methylphenyl)amino-6-benzoxazolylacetyl]-(2S)-pyrrolidinyl]-5-thiazolyl]propionic acid] | 8.34 | 88 µg/mL | >800 µg/mL | 0.26 mL/min/kg | 32310 ng·h/mL | – | – |
| CO[C@H]1C[C@@H](c2ncc(CCC(=O)O)s2)N(C(=O)Cc2ccc(Nc3nc4ccccc4s3)c(Cl)c2)C1 [Example 110, 3-[2-[1-[4-(2-Benzothiazolyl)amino-3-chlorophenyl]acetyl-(4S)-methoxy-(2S)-pyrrolidinyl]-5-thiazolyl]propionic acid] | 8.60 | 730 µg/mL | 730 µg/mL | – | – | – | – |
| CO[C@H]1C[C@@H](c2ncc(CCC(=O)O)s2)N(C(=O)Cc2cc(Cl)c(Nc3nc4ccccc4s3)cc2Cl)C1 [Example 112, 3-[2-[1-[4-(2-Benzothiazolyl)amino-2,5-dichlorophenyl]acetyl-(4S)-methoxy-(2S)-pyrrolidinyl]-5-thiazolyl]propionic acid] | 8.72 | 420 µg/mL | 770 µg/mL | – | – | – | – |
| Cn1cc(C(=O)Nc2cc(F)c(CC(=O)N3C[C@@H](N4CCC(F)(F)CC4)C[C@H]3c3ncc(CCC(=O)O)s3)cc2Cl)c2ccccc21 [Example 73, 3-[2-[1-[5-Chloro-2-fluoro-4-(1-methyl-3-indolylcarbonylamino)phenylacetyl]-(4S)-[1-(4,4-difluoro)piperidinyl]-(2S)-pyrrolidinyl]-5-thiazolyl]propionic acid] | 8.96 | 230 µg/mL | 290 µg/mL | – | – | – | – |
| CCOC1CN([C@H]2C[C@@H](c3ncc(CCC(=O)O)s3)N(C(=O)Cc3cc(Cl)c(NC(=O)c4cn(C)c5ccccc45)cc3F)C2)C1 [Example 69, 3-[2-[1-[5-Chloro-2-fluoro-4-(1-methyl-3-indolylcarbonylamino)phenylacetyl]-(4S)-[1-(3-ethoxy)azeditinyl]-(2S)-pyrroldinyl]-5-thiazolyl]propionic acid] | 9.15 | 940 µg/mL | 940 µg/mL | – | – | – | – |
| C[C@@H]1CN([C@H]2C[C@@H](c3ncc(CCC(=O)O)s3)N(C(=O)Cc3cc(Cl)c(NC(=O)c4coc5ccccc45)cc3Cl)C2)C[C@H](C)O1 [Example 90] | 8.89 | 1100 µg/mL | 1300 µg/mL | – | – | – | – |
| O=C(O)CCc1cnc([C@@H]2[C@@H](O)CCN2C(=O)Cc2ccc(Nc3nc4ccccc4s3)c(Cl)c2)s1 [Example 119, 3-[2-[1-[4-(2-Benzothiazolyl)amino-3-chlorophenyl]acetyl-(3S)-hydroxy-(2S)-pyrrolidinyl]-5-thiazolyl]propionic acid] | 8.21 | 730 µg/mL | 730 µg/mL | – | – | – | – |
| CO[C@H]1C[C@@H](c2ncc(CCC(=O)O)s2)N(C(=O)Cc2cc(Cl)c(Nc3nc4ccccc4o3)cc2F)C1 [Example 108] | 7.72 | 730 µg/mL | 730 µg/mL | – | – | – | – |
| COC1CN([C@H]2C[C@@H](c3ncc(CCC(=O)O)s3)N(C(=O)Cc3cc(Cl)c(NC(=O)c4cn(C)c5ccccc45)cc3F)C2)C1 [Example 63, 3-[2-[1-[5-Chloro-2-fluoro-4-(1-methyl-3-indolylcarbonylamino)phenylacetyl]-(4S)-[1-(3-methoxy)azetidinyl]-(2S)-pyrrolidinyl]-5-thiazolyl]propionic acid] | 9.05 | 1000 µg/mL | 1000 µg/mL | – | – | – | – |
| Cn1cc(C(=O)Nc2cc(Cl)c(CC(=O)N3C[C@@H](N4CCCCC4)C[C@H]3c3ncc(CCC(=O)O)s3)cc2Cl)c2ccccc21 [Example 46, 3-[2-[1-[2,5-Dichloro-4-(1-methyl-3-indolylcarbonylamino)phenylacetyl]-(4S=)=1-piperidinyl-(2S)-pyrrolidinyl]-5-thiazolyl]propionic acid] | 8.80 | >2000 µg/mL | 570 µg/mL | – | – | 1.44 ×10^5 | 53** % |
